Our source for the Ki values is patent US8802674B2, “Aminopyrimidine derivatives as LRRK2 modulators” (Genentech, Inc., priority 2011, dated 2014).

A word on the Ki: it is the equilibrium dissociation constant of an inhibitor or competing ligand from its target.

SMILES strings stand for the structures.

The target of one assay is LRRK2 (Homo sapiens (Human), UniProt Q5S007, G2019S). As to the kind of experiment: In Vitro LRRK2 LabChip Assay. Type of assay: biochemical. The conditions noted are these: Table 4. On the procedure: In Vitro LRRK2 LabChip Assay
Chain of LRRK2 (Q5S007 970-2527 G2019S limits assumed): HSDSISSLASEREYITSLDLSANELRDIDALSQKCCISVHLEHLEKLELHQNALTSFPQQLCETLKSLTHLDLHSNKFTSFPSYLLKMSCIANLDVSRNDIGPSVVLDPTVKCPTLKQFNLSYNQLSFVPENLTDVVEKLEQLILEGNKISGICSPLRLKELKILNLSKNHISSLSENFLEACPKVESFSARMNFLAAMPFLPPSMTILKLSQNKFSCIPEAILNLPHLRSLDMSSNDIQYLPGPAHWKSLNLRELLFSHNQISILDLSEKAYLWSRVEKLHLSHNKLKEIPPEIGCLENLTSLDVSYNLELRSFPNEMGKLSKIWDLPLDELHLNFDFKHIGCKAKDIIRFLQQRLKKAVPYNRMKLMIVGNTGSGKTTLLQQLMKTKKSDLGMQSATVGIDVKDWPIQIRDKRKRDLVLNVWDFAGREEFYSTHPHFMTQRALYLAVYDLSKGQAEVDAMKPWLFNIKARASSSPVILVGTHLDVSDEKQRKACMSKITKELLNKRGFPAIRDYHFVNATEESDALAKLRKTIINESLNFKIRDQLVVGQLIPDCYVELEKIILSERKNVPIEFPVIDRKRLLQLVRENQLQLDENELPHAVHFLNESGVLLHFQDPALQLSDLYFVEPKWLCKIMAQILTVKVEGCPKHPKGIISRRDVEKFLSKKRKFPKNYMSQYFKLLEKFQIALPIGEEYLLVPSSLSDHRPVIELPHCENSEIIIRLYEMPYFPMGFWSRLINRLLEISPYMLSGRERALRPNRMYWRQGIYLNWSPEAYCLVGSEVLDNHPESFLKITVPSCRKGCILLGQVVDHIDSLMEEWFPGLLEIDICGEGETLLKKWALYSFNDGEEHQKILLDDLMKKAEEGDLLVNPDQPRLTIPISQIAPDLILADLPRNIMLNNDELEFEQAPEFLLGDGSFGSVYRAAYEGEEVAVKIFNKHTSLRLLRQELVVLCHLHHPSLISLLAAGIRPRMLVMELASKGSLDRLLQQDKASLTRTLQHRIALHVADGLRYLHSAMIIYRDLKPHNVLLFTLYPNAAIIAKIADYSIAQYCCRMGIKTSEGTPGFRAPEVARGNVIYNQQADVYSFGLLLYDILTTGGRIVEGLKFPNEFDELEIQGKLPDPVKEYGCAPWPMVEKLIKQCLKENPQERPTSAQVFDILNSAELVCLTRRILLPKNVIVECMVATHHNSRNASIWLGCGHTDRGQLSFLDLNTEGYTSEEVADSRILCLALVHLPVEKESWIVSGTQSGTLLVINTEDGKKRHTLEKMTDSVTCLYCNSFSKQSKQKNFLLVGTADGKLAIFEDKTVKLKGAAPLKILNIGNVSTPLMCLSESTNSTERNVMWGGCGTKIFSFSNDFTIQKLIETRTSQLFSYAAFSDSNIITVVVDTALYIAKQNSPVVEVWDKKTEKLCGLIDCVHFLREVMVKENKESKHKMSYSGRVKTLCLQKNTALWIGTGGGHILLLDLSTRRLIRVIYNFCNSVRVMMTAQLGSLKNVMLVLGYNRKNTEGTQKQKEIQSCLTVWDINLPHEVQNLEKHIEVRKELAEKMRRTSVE
This assay was used to determine a compound's potency in inhibiting activity of LRRK2 by determining, Kiapp, IC50, or percent inhibition values. In a polypropylene plate, LRRK2, fluorescently-labeled peptide substrate, ATP and test compound were incubated together. Using a LabChip 3000 (Caliper Life Sciences), after the reaction the substrate was separated by capillary electrophoresis into two populations: phosphorylated and unphosphorylated. The relative amounts of each were quantitated by fluorescence intensity. LRRK2 Ki was determined according to the equation: Y=V0*(1−((x+Ki*(1+S/Km)+Et)/(2*Et)−(((x+Ki*(1+S/Km)+Et)^2−(4*Et*x))^0.5)/(2*Et))). Ki values in Table 4 and elsewhere herein are shown in μM.
Assay conditions and materials used were as follows:
Compound Plate Preparation:
For serial dilutions, 34.6 μl DMSO was added to columns 3-24. For the assay controls, 37.5 μl DMSO was added to columns 1 and 2 of rows A and P. a,d and 50 μl 25 μM G-028831 (Staurosporine) was added to columns 1 and 2, row B. For the samples: to start at 100 μM, 37.5 μl DMSO was to columns 1 and 2, then 12.5 μl 10 mM compound; to start at 10 μM, 78 μl DMSO was added to columns 1 & 2, then 2 μl 10 mM compound; and to start at 1 μM, 25 μM compound (2 μl 10 mM cmpd+798 μl DMSO) was added to empty columns 1 and 2. A Precision instrument was used to perform 1:3.16 serial dilutions (“PLK_BM_serial_halflog”).
ATP was diluted to 282.1 μM in Complete Kinase Buffer (final concentration was 130 μM).
Total and Blank Preparation:
In Complete Reaction Buffer, substrate was diluted to 4 μM. Equal volumes of Complete Reaction Buffer and 4 μM substrate were combined to obtain the blank. Equal volumes of Complete Reaction Buffer and 4 μM substrate were combined and to the combined solution was added 2× final LRRK2 concentration.
To a 50 μl polypropylene plate, 5 μl/well buffer/substrate was added by hand to Blank wells. A Biomek FX was used to start the kinase reaction (“PLK SAR 23 ATP”). The following were added to the appropriate wells:
5 μl/well compound/ATP in Assay Plate;
5 μl/well kinase/substrate in Assay Plate;
The plate was incubated for 2 hours in the dark. Biomek FX was used to stop the kinase reaction (“PLK Stop”), and 10 μl/well Stop solution was added to the Assay Plate. Results were read on the LabChip 3000.
The LabChip 3000 was run using the job “LRRK2IC50” with the following job settings: […]
`CNc1nc(Nc2ccc(C(=O)N3CCOCC3)cc2OC)ncc1C1CC1` [Example 66, [4-(5-Cyclopropyl-4-methylamino-pyrimidin-2-ylamino)-3-methoxy-phenyl]-morpholin-4-yl-methanone] had a Ki of 35.9 nM.

`CNc1nc(Nc2cc(OC)c(C(=O)N3CCOCC3)cc2F)ncc1C(F)(F)F` [Example 237, (5-fluoro-2-methoxy-4-(4-(methylamino)-5-(trifluoromethyl)pyrimidin-2-ylamino)phenyl) (morpholino)methanone] came in with an inhibition constant Ki of 4.8 nM. This Ki is about 7.5-fold lower than that of the compound before.

`CNc1nc(Nc2ccc(C(=O)N3CCOC(CC(C)C)C3)cc2OC)ncc1Cl` (centres unmarked) [Example 41, [4-(5-Chloro-4-methylamino-pyrimidin-2-ylamino)-3-methoxy-phenyl]-(2-isobutyl-morpholin-4-yl)-methanone] displayed an inhibition constant Ki of 4.2 nM.

Consider `CNc1nc(Nc2ccc(C(=O)N3CCOCC3CO)cc2OC)ncc1Cl` (centres unmarked) [Example 40, [4-(5-Chloro-4-methylamino-pyrimidin-2-ylamino)-3-methoxy-phenyl]-(3-hydroxymethyl-morpholin-4-yl)-methanone], for which the Ki was determined as 4.4 nM.

`COc1cc(C(=O)N2CCOCC2)ccc1Nc1ncc(Cl)c(N2CCCC2)n1` [Example 255, (4-(5-chloro-4-(pyrrolidin-1-yl)pyrimidin-2-ylamino)-3-methoxyphenyl) (morpholino) methanone] came in with a Ki of 17.9 nM.

Turning to `CCC1(CC)CN(C(=O)c2ccc(Nc3ncc(Cl)c(NC)n3)c(OC)c2)CCO1` [Example 39, [4-(5-Chloro-4-methylamino-pyrimidin-2-ylamino)-3-methoxy-phenyl]-(2,2-diethyl-morpholin-4-yl)-methanone], affinity was put at a Ki of 5.5 nM.

The compound `[2H]C1([2H])OC([2H])([2H])C([2H])([2H])N(C(=O)c2cc(Cl)c(Nc3ncc(C(F)(F)F)c(NC)n3)cc2OC)C1([2H])[2H]` [Example 236, (5-chloro-2-methoxy-4-(4-(methylamino)-5-(trifluoromethyl)pyrimidin-2-ylamino)phenyl) (perdeuteromorpholino) methanone] yielded a Ki of 4.2 nM. This Ki and that of the compound before are within 1.5-fold of each other.

For `COc1cc(C(=O)N2CC(N3CCOCC3)C2)ccc1Nc1ncc(Br)c(OC)n1` [Example 88, [4-(5-Bromo-4-methoxy-pyrimidin-2-ylamino)-3-methoxy-phenyl]-(3-morpholin-4-yl-azetidin-1-yl)-methanone], the inhibition constant Ki came out at 5 nM. The Ki values of the last two compounds are within 1.5-fold of each other.

`CNc1nc(Nc2ccc(C(=O)N3CC(N4CCOCC4)C3)cc2OC)ncc1Cl` [Example 89, [4-(5-Chloro-4-methylamino-pyrimidin-2-ylamino)-3-methoxy-phenyl]-(3-morpholin-4-yl-azetidin-1-yl)-methanone] returned a Ki of 2.7 nM.

The compound `CNc1nc(Nc2cc(OC)c(C(=O)N3CCC(N(C)C)CC3)cc2Cl)ncc1Cl` [Example 151, [5-Chloro-4-(5-chloro-4-methylamino-pyrimidin-2-ylamino)-2-methoxy-phenyl]-(4-dimethylamino-piperidin-1-yl)-methanone] had an inhibitory constant (Ki) of 2.8 nM.

Consider `CCNC(=O)c1ccc(Nc2ncc(C#N)c(NC)n2)c(OC)c1` [Example 203, 4-(5-Cyano-4-methylamino-pyrimidin-2-ylamino)-N-ethyl-3-methoxy-benzamide], for which the inhibition constant Ki turned out to be 9.6 nM.

With `CCNc1nc(Nc2cc(F)c(C(=O)N(C)C)cc2OC)ncc1C#N` [Example 240, 4-(5-Cyano-4-ethylamino-pyrimidin-2-ylamino)-2-fluoro-5-methoxy-N,N-dimethyl-benzamide], the Ki came out at 9.8 nM.

For `CNc1nc(Nc2cc(OC)c(C(=O)N3CCNCC3)cc2Cl)ncc1Cl` [Example 150, [5-Chloro-4-(5-chloro-4-methylamino-pyrimidin-2-ylamino)-2-methoxy-phenyl]-piperazin-1-yl-methanone], affinity was put at a Ki of 8.9 nM.

Regarding `COCCNc1nc(Nc2ccc(C(=O)N3CCOCC3)cc2OC)ncc1Br` [Example 229, {4-[5-Bromo-4-(2-methoxy-ethylamino)-pyrimidin-2-ylamino]-3-methoxy-phenyl}-morpholin-4-yl-methanone], the Ki was 4.1 nM.

In turn, `CNc1nc(Nc2ccc(C(=O)N3CCN(C(C)=O)CC3)cc2OC)ncc1Cl` [Example 25, l-{4-[4-(5-Chloro-4-methylamino-pyrimidin-2-ylamino)-3-methoxy-benzoyl]-piperazin-1-yl}-ethanone] yielded a Ki of 3.4 nM.

Compound `CNc1nc(Nc2cc(F)c(C(=O)N3CCC(C#N)C3)cc2OC)ncc1C(F)(F)F` (stereo not drawn) [Example 178, l-[2-Fluoro-5-methoxy-4-(4-methylamino-5-trifluoromethyl-pyrimidin-2-ylamino)-benzoyl]-pyrrolidine-3-carbonitrile] showed a Ki of 1.8 nM.

As to `CNc1nc(Nc2ccc(CC(=O)N3CCOCC3)cc2OC)ncc1C(F)(F)F` [Example 223, 2-[3-Methoxy-4-(4-methylamino-5-trifluoromethyl-pyrimidin-2-ylamino)-phenyl]-1-morpholin-4-yl-ethanone], the Ki came out at 5.2 nM.

In the case of `CNc1nc(Nc2ccc(C(=O)N3CCC3)cc2OC)ncc1C#N` [Example 212, 2-[4-(Azetidine-1-carbonyl)-2-methoxy-phenylamino]-4-methylamino-pyrimidine-5-carbonitrile], the inhibitory constant (Ki) came to 26.4 nM.

Turning to `CNc1nc(Nc2cc(OC)c(C(=O)NC3CCN(C)CC3)cc2Cl)ncc1C(F)(F)F` [Example 173, 5-Chloro-2-methoxy-4-(4-methylamino-5-trifluoromethyl-pyrimidin-2-ylamino)-N-(1-methyl-piperidin-4-yl)-benzamide], affinity was put at a Ki of 1.5 nM. This Ki is about 18-fold lower than that of the compound before.

`CNc1nc(Nc2cc(OC)c(CC(=O)N3CCOCC3)cc2OC)ncc1Br` [Example 220, 2-[4-(5-Bromo-4-methylamino-pyrimidin-2-ylamino)-2,5-dimethoxy-phenyl] 1-morpholin-4-yl-ethanone] had an inhibition constant Ki of 3.4 nM.

As to `CNc1nc(Nc2cc(OC)c(CC(=O)N3CCOCC3)cc2OC)ncc1Cl` [Example 221, 2-[4-(5-Chloro-4-methylamino-pyrimidin-2-ylamino)-2,5-dimethoxy-phenyl] 1-morpholin-4-yl-ethanone], the affinity corresponds to a Ki of 8.7 nM. This Ki is about 2.6-fold higher than that of the compound before.

Staying with this assay, now noted: Table 5.
Consider `COc1cc(C(=O)N2CCOCC2)ccc1Nc1ncc(Cl)c(OC2CCOCC2)n1` [Example 264, {4-[5-Chloro-4-(tetrahydro-pyran-4-yloxy)-pyrimidin-2-ylamino]-3-methoxy-phenyl}-morpholin-4-yl-methanone], for which the Ki amounted to 33 nM. That is a double-digit nanomolar value.

In turn, `COc1cc(C(=O)N2CCOCC2)c(Cl)cc1Nc1ncc(C(F)(F)F)c(OC)n1` [Example 262, [2-Chloro-5-methoxy-4-(4-methoxy-5-trifluoromethyl-pyrimidin-2-ylamino)-phenyl]-morpholin-4-yl-methanone] registered an inhibition constant Ki of 24 nM.

The assay is the same for the next values; noted with them: Table 6.
`CNc1nc(Nc2ccc(C(=O)NC3COC3)cc2OC)ncc1C(F)(F)F` [Example 271, 3-Methoxy-4-(4-methylamino-5-trifluoromethyl-pyrimidin-2-ylamino)-N-oxetan-3-yl-benzamide] showed an inhibition constant Ki of 3.7 nM.

The compound `CNc1nc(Nc2ccc(C(=O)N3CCOCC3)cc2OCC2CCC2)ncc1C(F)(F)F` [Example 286, [3-Cyclobutyl-methoxy-4-(4-methylamino-5-trifluoromethyl-pyrimidin-2-ylamino)-phenyl]-morpholin-4-yl-methanone] displayed a Ki of 5.2 nM.

Turning to `CNc1nc(Nc2cc(F)c(C(=O)N(C)CCOC)cc2OC)ncc1C(F)(F)F` [Example 303, 2-Fluoro-5-methoxy-N-(2-methoxy-ethyl)-N-methyl-4-(4-methylamino-5-trifluoromethyl-pyrimidin-2-ylamino)-benzamide], the Ki was 5.9 nM.

Turning to `CNc1nc(Nc2ccc(C(=O)N3CCOCC3)cc2C2CC2)ncc1C(F)(F)F` [Example 289, [3-Cyclopropyl-4-(4-methylamino-5-trifluoromethyl-pyrimidin-2-ylamino)-phenyl]-morpholin-4-yl-methanone], the affinity, expressed as Ki, was 20 nM.

The assay is the same for the next values; noted with them: Table 7.
Compound `CCNc1nc(Nc2cc(F)c(C(=O)N3CCOCC3)cc2OC)ncc1C#N` [Example 316, 4-Ethylamino-2-[5-fluoro-2-methoxy-4-(morpholine-4-carbonyl)-phenylamino]-pyrimdine-5-carbonitrile] had an inhibitory constant (Ki) of 6.5 nM. This lies in the single-digit nanomolar range.

The compound `CNc1nc(Nc2cc(F)c(C(=O)N(C)C)cc2OC)ncc1C#N` [Example 320, 4-(5-Cyano-4-methylamino-pyrimidin-2-ylamino)-2-fluoro-5-methoxy-N,N-dimethyl-benzamide] had a Ki of 62.5 nM.
